Active and inactive are the calls of the source. The rule behind the calls is not given here.
System: rodent carcinogenicity bioassays, tumor incidence
Test: CCRIS carcinogenicity studies
Summary of the method: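 NCI-built, expert-reviewed records of carcinogenicity and related test outcomes (mutagenicity, tumor promotion/inhibition) compiled from published and report sources, historical span 1985-2011, not updated.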

Which carcinogen call (Species: MOUSE, Strain/Sex: B6C3F1/MALE, Route: INTRAPERITONEAL, Dose: 0, 0.001, 0.003, 0.01 UMOL/G IN 5 µL/G DMSO ONCE ON D 12 OF AGE (STUDY DURATION: 10 MO), Dose: 0, 0.001, 0.003, 0.01 UMOL/G IN 5 µL/G DMSO ONCE ON D 12 OF AGE (STUDY DURATION: 10 MO), Tumor Site: Type of Lesion: LIVER: HEPATOMA) does the source give for `Cc1c2ccccc2c(COS(=O)(=O)O)c2ccc3ccccc3c12` here?
Its carcinogen call is “active; positive”.

What about the carcinogen call (Species: MOUSE, Strain/Sex: B6C3F1/MALE, Route: INTRAPERITONEAL, Dose: 0, 0.0025 UMO1/G IN 10 ML/G TRIOCTANOIN ON 12, 16, 20, AND 24 D OF AGE (STUDY DURATION: 10 MO), Tumor Site: Type of Lesion: LIVER: HEPATOMA) of the same molecule?
The carcinogen call was “active; positive”.

And the carcinogen call (Species: MOUSE, Strain/Sex: B6C3F1/MALE, Route: INTRAPERITONEAL, Dose: 0, 0.0025 UMOL/G IN 10 µL/G TRIOCTANOIN ONCE ON D 12 OF AGE (STUDY DURATION: 10 MO), Tumor Site: Type of Lesion: LIVER: HEPATOMA)?
Its carcinogen call is “active; positive”.

And the carcinogen call (Species: MOUSE, Strain/Sex: STRAIN-A/FEMALE, Route: INTRAPERITONEAL, Dose: 0, 0.1 001;0.003, 0.01 UMOL/G IN 5 µL DMSO/G ONCE AT 4-6 WK OF AGE (STUDY DURATION: 6 MO), Dose: 0, 0.1 001;0.003, 0.01 UMOL/G IN 5 µL DMSO/G ONCE AT 4-6 WK OF AGE (STUDY DURATION: 6 MO))?
Its carcinogen call is “inactive; negative”.

What about the carcinogen call (Species: RAT, Strain/Sex: SPRAGUE-DAWLEY/FEMALE, Route: SUBCUTANEOUS, Dose: 0, 0.2 UMOL 3/WK FOR 20 DOSES (STUDY DURATION: 52 WK), Tumor Site: Type of Lesion: INJECTION SITE: SARCOMA) of the same molecule?
The carcinogen call was “active; positive”.

What about the carcinogen call (Species: RAT, Strain/Sex: SPRAGUE-DAWLEY/FEMALE, Route: SUBCUTANEOUS, Dose: 0, 2 UMOL IN 0.25 ML TRIOCTANOIN INTO LEFT HIND LEG AT ABOUT 40 D OF AGE FOLLOWED BY A SECOND DOSE 6 D LATER (STUDY DURA) of the same molecule?
The carcinogen call was “inactive; negative”.

And the carcinogen call (Species: RAT, Strain/Sex: SPRAGUE-DAWLEY/FEMALE, Route: SUBCUTANEOUS, Dose: 0, 2 UMOL IN 0.25 ML TRIOCTANOIN ONCE INTO LEFT HIND LEG AT ABOUT 40 D OF AGE (STUDY DURATION: 16 MO))?
The carcinogen call was “inactive; negative”.

Which carcinogen call (Species: MOUSE, Strain/Sex: B6C3F1/FEMALE, Route: GAVAGE, Dose: 0, 50, 100 MG/KG IN DEIONIZED WATER 5 D/WK FOR 104 WK (STUDY DURATION: 104 WK), Dose: 0, 50, 100 MG/KG IN DEIONIZED WATER 5 D/WK FOR 104 WK (STUDY DURATION: 104 WK)) does the source give for `O=C(O)CCl` here?
The carcinogen call was “inactive; negative”.

And the carcinogen call (Species: MOUSE, Strain/Sex: B6C3F1/MALE, Route: GAVAGE, Dose: 0, 50, 100 MG/KG IN DEIONIZED WATER 5 D/WK FOR 104 WK (STUDY DURATION: 104 WK), Dose: 0, 50, 100 MG/KG IN DEIONIZED WATER 5 D/WK FOR 104 WK (STUDY DURATION: 104 WK))?
Its carcinogen call is “inactive; negative”.

What about the carcinogen call (Species: RAT, Strain/Sex: F344/FEMALE, Route: GAVAGE, Dose: 0, 15, 30 MG/KG IN DEIONIZED WATER 5 D/WK FOR 104 WK (STUDY DURATION: 105 WK), Dose: 0, 15, 30 MG/KG IN DEIONIZED WATER 5 D/WK FOR 104 WK (STUDY DURATION: 105 WK)) of the same molecule?
The carcinogen call was “inactive; negative”.

And the carcinogen call (Species: RAT, Strain/Sex: F344/MALE, Route: GAVAGE, Dose: 0, 15, 30 MG/KG IN DEIONIZED WATER 5 D/WK FOR 104 WK (STUDY DURATION: 105 WK), Dose: 0, 15, 30 MG/KG IN DEIONIZED WATER 5 D/WK FOR 104 WK (STUDY DURATION: 105 WK))?
The carcinogen call was “inactive; negative”.

What about the carcinogen call (Species: RAT, Strain/Sex: F344/MALE, Route: ORAL, Dose: O, 0.05, 0.5, 2 G/L IN DRINKING WATER FOR 104 WK, THE 2.5 G/L CONCENTRATION WAS LOWERED TO 1.5 G/L AT 8 WK THEN TO 1 G/L, Dose: O, 0.05, 0.5) of the same molecule?
Its carcinogen call is “inactive; negative”.

How did the carcinogen call (Species: RAT, Strain/Sex: MRC-WISTAR/FEMALE, Route: ORAL, Dose: 0, 10 G TOTAL DOSE IN CITRATE BUFFER IN DRINKING WATER 5D/WK FOR 12 MO (STUDY DURATION: 2 YR)) turn out when `CC1CN(N=O)C(=O)NC1=O` (stereo unspecified) was run?
Its carcinogen call is “inactive; negative”.

And the carcinogen call (Species: RAT, Strain/Sex: MRC-WISTAR/MALE, Route: ORAL, Dose: 0, 1 G TOTAL DOSE IN CITRATE BUFFER IN DRINKING WATER 5D/WK FOR 12 MO (STUDY DURATION: 2 YR))?
Its carcinogen call is “inactive; negative”.

With `O=[N+]([O-])c1cc2c3c(cccc3c1)-c1ccccc1-2` as the molecule, how does the carcinogen call (Species: MOUSE, Strain/Sex: B6C3F1/MALE, Route: INTRAPERITONEAL, Dose: 0, 400 NMOL IN 35 µL DMSO ON DAYS 1 (1/7 TOTAL DOSE), 8 (2/7 TOTAL DOSE), AND 15 (4/7 TOTAL DOSE) AFTER BIRTH (STUDY DUR) read?
Its carcinogen call is “inactive; negative”.

What does the source list for `O=S(=O)([O-])[O-].[Ni+2]`?
carcinogen call (Species: MOUSE, Strain/Sex: B6C3F1/FEMALE, Route: INHALATION, Dose: 0, 0.25, 0.5, 1 MG/M3 6 HR/D 5 D/WK FOR 104 WK (STUDY DURATION: 105 WK), Dose: 0, 0.25, 0.5, 1 MG/M3 6 HR/D 5 D/WK FOR 104 WK (STUDY DURATION: 105 WK)): inactive; negative; carcinogen call (Species: MOUSE, Strain/Sex: B6C3F1/MALE, Route: INHALATION, Dose: 0, 0.25, 0.5, 1 MG/M3 6 HR/D 5 D/WK FOR 104 WK (STUDY DURATION: 105 WK), Dose: 0, 0.25, 0.5, 1 MG/M3 6 HR/D 5 D/WK FOR 104 WK (STUDY DURATION: 105 WK)): inactive; negative; carcinogen call (Species: RAT, Strain/Sex: F344/FEMALE, Route: INHALATION, Dose: 0, 0.12, 0.25, 0.5 MG/M3 6 HR/D 5 D/WK FOR 104 WK (STUDY DURATION: 105 WK), Dose: 0, 0.12, 0.25, 0.5 MG/M3 6 HR/D 5 D/WK FOR 104 WK (STUDY DURATION: 105 WK)): inactive; negative; carcinogen call (Species: RAT, Strain/Sex: F344/MALE, Route: INHALATION, Dose: 0, 0.12, 0.25, 0.5 MG/M3 6 HR/D 5 D/WK FOR 104 WK (STUDY DURATION: 105 WK), Dose: 0, 0.12, 0.25, 0.5 MG/M3 6 HR/D 5 D/WK FOR 104 WK (STUDY DURATION: 105 WK)): inactive; negative; carcinogen call (Species: RAT, Strain/Sex: F344/MALE, Route: INTRAMUSCULAR, Dose: 0, 63, 83, UMOL/KG GIVEN IN 14 INJECTIONS OVER 26 D (STUDY DURATION; 2 YR), Dose: 0, 63, 83, UMOL/KG GIVEN IN 14 INJECTIONS OVER 26 D (STUDY DURATION; 2 YR)): inactive; negative; carcinogen call (Species: Rat, Strain/Sex: Fischer 344/Female (50/group), Route: Oral, Dose: 0, 10, 30, 50 mg/kg/day by gavage once daily for 104 wk, Dose: 0, 10, 30, 50 mg/kg/day by gavage once daily for 104 wk): inactive; negative; carcinogen call (Species: Rat, Strain/Sex: Fischer 344/Male (50/group), Route: Oral, Dose: 0, 10, 30, 50 mg/kg/day by gavage once daily for 104 wk, Dose: 0, 10, 30, 50 mg/kg/day by gavage once daily for 104 wk): inactive; negative

How did the carcinogen call (Species: RAT, Strain/Sex: BDVI/FEMALE, Route: GAVAGE, Dose: 0, 38, 76 MG/KG 1/WK FOR DURATION OF STUDY (STUDY DURATION: LIFETIME), Dose: 0, 38, 76 MG/KG 1/WK FOR DURATION OF STUDY (STUDY DURATION: LIFETIME), Tumor Site: Type of Lesion: SPINAL CORD: NEURINOMA, SPINAL NERVES: NEURINOMA) turn out when `NC[N+](=O)[O-]` was run?
The carcinogen call was “active; positive”.

What about the carcinogen call (Species: RAT, Strain/Sex: BDVI/MALE, Route: GAVAGE, Dose: 0, 38, 76 MG/KG 1/WK FOR DURATION OF STUDY (STUDY DURATION: LIFETIME), Dose: 0, 38, 76 MG/KG 1/WK FOR DURATION OF STUDY (STUDY DURATION: LIFETIME), Tumor Site: Type of Lesion: SPINAL CORD: NEURINOMA, SPINAL NERVES: NEURINOMA) of the same molecule?
The carcinogen call was “active; positive”.

Which carcinogen call (Species: RAT, Strain/Sex: SPRAGUE-DAWLEY/FEMALE, Route: SUBCUTANEOUS, Dose: 0, 200 UMOL/KG IN DMSO INTO SUPRASCAPULAR AREA ON DAY 1 OF LIFE FOLLOWED BY 0, 100 UMOL 1/WK AT WK 2-7 THEN 0, 200 UMOL/, Dose: 0, 200 UMOL/KG IN DMSO INTO SUPRASCAPULAR AREA ON DAY 1 OF LIFE FOLLOWED BY 0, 100 UMOL 1/WK AT WK 2-7 THEN 0, 200 UMOL/) does the source give for `c1ccc2c(c1)cnc1ccccc12` here?
The carcinogen call was “inactive; negative”.

What about the carcinogen call (Species: RAT, Strain/Sex: SPRAGUE-DAWLEY/MALE, Route: SUBCUTANEOUS, Dose: 0, 200 UMOL/KG IN DMSO INTO SUPRASCAPULAR AREA ON DAY 1 OF LIFE FOLLOWED BY 0, 100 UMOL 1/WK AT WK 2-7 THEN 0, 200 UMOL/, Dose: 0, 200 UMOL/KG IN DMSO INTO SUPRASCAPULAR AREA ON DAY 1 OF LIFE FOLLOWED BY 0, 100 UMOL 1/WK AT WK 2-7 THEN 0, 200 UMOL/) of the same molecule?
The carcinogen call was “inactive; negative”.

Source: PubChem BioAssay AID1259411 (Chemical Carcinogenesis Research Information System (CCRIS), 2018)
